Measurements: patent US20060160777A1, “New use of GABAbeta receptor agonists” (priority 2004, published 2006)
Where two headings read alike, the source gives them in different places.

What was measured:
[1] = system: citric acid-induced cough in conscious guinea pigs; test: Citric acid-induced cough in conscious guinea pigs, GABAB agonists given subcutaneously; assay type: in vivo, guinea pig
Source text: Citric acid-induced cough was evoked in conscious guinea pigs. Male Hartley guinea pigs (300-400 g) were placed in a chamber with a continuous flow of air. Positive and negative pressure changes within the chamber were used to monitor the expiratory and inspiratory phases of respiration. A nebuliser was connected in series with the air pump, allowing aerosol delivery of citric acid (0.1-1 M).
Cough was defined based on the visual appearance of the respiratory manoeuvre, the characteristic sound, and by a signature pressure trace typified by an expiratory effort that produced a positive chamber pressure 10-20 times higher than that associated with tidal breathing and proceeded by a rapid and pronounced inspiratory effort. All data were recorded digitally. The total number of coughs and the estimated concentration of citric acid evoking 1, 2 and 5 coughs were determined for each experiment.
(§1) Four treatment groups were employed in this study: Vehicle control, baclofen, (2R)-(3-amino-2-fluoropropyl) phosphinic acid and (3-aminopropyl) phosphinic acid (3-APPiA). […] […] To assess CNS depressant effects of these compounds, their effects on respiratory rate and respiratory pattern (inspiratory and expiratory times) were assessed and compared to control.

conscious guinea pigs = test: Effects of subcutaneously administered GABAB agonists on baseline respiratory rate in conscious guinea pigs; details: placebo 96.2 ± 3.8
Procedure: as §1
B. Effects of Subcutaneously Administered GABAB Agonists on Baseline Respiratory Rate in Conscious Guinea Pigs

[2] = Pharmacokinetics in female dogs after single intravenous and oral doses; assay type: in vivo, dog; details: for half-life / clearance / Vd: Beagle and Labrador; for Vd: read-out: Vss (volume of distribution at steady state); for F (oral availability): oral vs intravenous
Procedure: In the present studies dogs received single intravenous and oral doses of 3-APPiA, (2R)-(3-amino-2-fluoropropyl) phosphinic acid (A), (2S)-(3-amino-2-hydroxypropyl) phosphinic acid A), (3-amino-2-oxopropyl) phosphinic acid (C) and 3-amino-2-fluoropropyl) phosphinic acid (D) at therapeutic doses. The plasma concentrations of each compound was determined by LC-MS. The mean values of the total plasma clearance (CL), the half-life (TA), the volume of distribution at steady state (Vs), the oral availability (F), are summarised in Table 5.
Eight female Beagle and four Labrador dogs were used. The dogs were identified by a number tattooed in the ear. The animals had free access to water and were fed once a day (GLP diet) at approximately 1 p.m. On the experimental day, the dogs had not eaten since approximately 1 p.m. on the day before and were not allowed to eat until 6 hours after dosing.
The test formulations were administered intravenously in a superficial front leg vein (this vein was not used for blood sampling during 2 hours after dosing) or orally by gavage. The gavage tube was rinsed with about 20 mL of water and emptied with 20 mL of air before it was taken out. The oral and intravenous dose volumes were 1 and 0.5 mL/kg, respectively
Blood samples of about 2 mL were taken from a superficial front leg vein pre-dose and at 5, 10, 20, 40, 90 minutes, 3, 5, 8 and 24 hours after dosing. The blood samples were collected in heparinized glass tubes (Venoject®) and centrifuged (10 min, 3000 g, +4° C.). The plasma was then transferred to plastic tubes and stored at about −20° C. until analysis.
The pharmacokinetic parameters were calculated by non-compartment analysis using WinNonlin Professional (Pharsight Corporation, California, USA). The area under the plasma concentration-time curve (AUC(0-t)) was calculated using a combination of the linear and logarithmic trapezoidal rule from the time of administration to the sampling time with the last determinable plasma concentration (3, 5, 8 or 24 h). For the intravenous bolus dose, the concentration at time zero (C(0)) was estimated by log-linear regression of the first two concentration-time points. The AUC(0-t) was extrapolated to infinity by adding Ct/k. Ct was the predicted plasma concentration at the time of the last plasma sample with a determinable concentration and k was the apparent terminal rate constant. Ct and k were obtained by linear least-squares regression analysis of the logarithm of the last 3 to 5 plasma concentrations versus time. The apparent terminal half-life (t1/2) was calculated as In 2/k, wherein k is elimination constant, i.e. the slope of the decreasing curve.
The oral bioavailability (F) for each dog was calculated from individual AUC (area under the curve) and dose values. The calculation was made as follows: (AUCpo·Doseiv/AUCic·Dosepo)·100.
Estimates of total plasma clearance and of volume of distribution were calculated from plasma concentration data obtained after intravenous bolus injection. The total plasma clearance (CL) was calculated as Dosei.v./AUCi.v., and the volume of distribution at steady is state (Vss) was calculated as MRTi.v.·CL. The mean residence time after intravenous administration (MRTi.v.) was calculated as AUMC/AUC for bolus injection, wherein AUMC is the area under the first-moment versus time curve. The results are presented by descriptive statistics. The pharmacokinetic parameters are presented as geometric mean and range.

[3] = 0.3 mg/kg s.c., 30 min before challenge, citric acid 0 M, mean ± spread
[4] = 0.3 mg/kg s.c., citric acid 0.01 M
[5] = 0.3 mg/kg s.c., citric acid 0.1 M
[6] = 0.3 mg/kg s.c., citric acid 0.3 M
[7] = 0.3 mg/kg s.c., citric acid 1 M
[8] = 3 mg/kg s.c., citric acid 0.01 M
[9] = 3 mg/kg s.c., citric acid 0.1 M
[10] = 3 mg/kg s.c., citric acid 0.3 M
[11] = dog, in vivo, female dogs, geometric mean, dose 2-7 μmol/kg per compound, read-out: T1/2 (half-life) (converted)
[12] = dog, in vivo, female dogs, intravenous bolus, geometric mean, dose 2-7 μmol/kg per compound, read-out: CL (total plasma clearance)
[13] = dog, in vivo, female dogs, intravenous bolus, geometric mean, dose 2-7 μmol/kg per compound
[14] = female dogs, geometric mean, dose 2-7 μmol/kg per compound

Row | SMILES | Cumulative number of coughs evoked by citric acid [1, 3] | Cumulative number of coughs evoked by citric acid [1, 4] | Cumulative number of coughs evoked by citric acid [1, 5] | Cumulative number of coughs evoked by citric acid [1, 6] | Cumulative number of coughs evoked by citric acid [1, 7] | Cumulative number of coughs evoked by citric acid ([1]; 3 mg/kg s.c., citric acid 0 M) | Cumulative number of coughs evoked by citric acid [1, 8] | Cumulative number of coughs evoked by citric acid [1, 9] | Cumulative number of coughs evoked by citric acid [1, 10] | Cumulative number of coughs evoked by citric acid ([1]; 3 mg/kg s.c., citric acid 1 M) | Baseline respiratory rate (result of study B, mean) (conscious guinea pigs; 0.3 mg/kg s.c.) | half-life [2, 11] | clearance [2, 12] | Vd [2, 13] | F (oral availability) [2, 14] | other results
1 | NCCC[PH](=O)O [Compound 3-APPiA, (3-aminopropyl) phosphinic acid] | 0 ± 0 | 0 ± 0 | 0.2 ± 0.2 | 7.8 ± 3.0 | 28.8 ± 2.9 | 0 ± 0 | 0 ± 0 | 1.7 ± 0.9 | 3.9 ± 1.6 | 16.1 ± 5.2 | 93.0 ± 5.6 | 0.52 h | 20 mL/min/kg | 0.55 L/kg | 10% | Baseline respiratory rate (result of study B, mean) (conscious guinea pigs; 3 mg/kg s.c.): 97.9 ± 4.2
2 | NCC(CC(=O)O)c1ccc(Cl)cc1 (stereo not drawn) [Baclofen, 4-amino-3-(chlorophenyl)butanoic acid] | 0 ± 0 | 1.0 ± 0 | 3.0 ± 0.6 | 12.3 ± 7.4 | 25.7 ± 4.8 | 0 ± 0 | 0 ± 0 | 1.0 ± 0.5 | 6.0 ± 1.9 | 14.3 ± 3.8 | 96.8 ± 8.5 | – | – | – | – | Baseline respiratory rate (result of study B, mean) (conscious guinea pigs; 3 mg/kg s.c.): 78.1 ± 17.6
3 | NC[C@H](O)C[PH](=O)O [B, (2S)-(3-amino-2-hydroxypropyl) phosphinic acid] | – | – | – | – | – | – | – | – | – | – | – | 0.5 h | 6.67 mL/min/kg | 0.25 L/kg | 86% | –
4 | NCC(F)C[PH](=O)O (stereo not drawn) [D] | – | – | – | – | – | – | – | – | – | – | – | – | – | – | – | T1/2 (half-life) ([2]; dog, in vivo): 8.2 h; CL (total plasma clearance) ([2]; dog, in vivo, iv): 5.2 mL/min/kg; Vss (volume of distribution at steady state) ([2]; dog, in vivo, iv): 2.3 L/kg
5 | CP(=O)(O)CCCN [SKF97541, (3-aminopropyl)methyl phosphinic acid] | 0 ± 0 | 0 ± 0 | 0.4 ± 0.2 | 3.8 ± 1.6 | 19.2 ± 5.8 | – | – | – | – | – | 68.6 ± 6.0 | – | – | – | – | Baseline respiratory rate (result of study B, mean) (conscious guinea pigs; 0.1 mg/kg s.c.): 79.2 ± 16.5
6 | NCC(=O)C[PH](=O)O [C, (3-amino-2-oxopropyl) phosphinic acid] | – | – | – | – | – | – | – | – | – | – | – | 2.5 h | 8.2 mL/min/kg | 0.74 L/kg | 60% | –
7 | NC[C@@H](F)C[PH](=O)O [A, (2R)-(3-amino-2-fluoropropyl) phosphinic acid] | 0 ± 0 | 0 ± 0 | 3.4 ± 1.1 | 11.4 ± 1.3 | 27.6 ± 3.7 | 0 ± 0 | 0.1 ± 0.1 | 1.9 ± 1.1 | 9.0 ± 3.8 | 15.4 ± 3.6 | – | – | – | – | – | Cumulative number of coughs evoked by citric acid ([1]; 10 mg/kg s.c., citric acid 0 M): 0 ± 0; Cumulative number of coughs evoked by citric acid ([1]; 10 mg/kg s.c., citric acid 0.01 M): 0 ± 0; Cumulative number of coughs evoked by citric acid ([1]; 10 mg/kg s.c., citric acid 0.1 M): 0.6 ± 0.3; Cumulative number of coughs evoked by citric acid ([1]; 10 mg/kg s.c., citric acid 0.3 M): 3.8 ± 1.3; Cumulative number of coughs evoked by citric acid ([1]; 10 mg/kg s.c., citric acid 1 M): 9.7 ± 1.9; half-life ([2]; female, dog, in vivo): 7.5 h; clearance ([2]; female, dog, in vivo, iv): 2.1 mL/min/kg
